Results taken from ChEMBL document CHEMBL1201861, “Genomics of Drug Sensitity in Cancer screening data, Wellcome Trust Sanger Institute”.

Columns and labels:
NCI-H2171 = assay: cells; format: functional, cell-based, Homo sapiens; settings: Homo sapiens, NCI-H2171;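 further: growth inhibition of human NCI-H2171 cells, read out by a cell viability assay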
Description: SANGER: Inhibition of human NCI-H2171 cell growth in a cell viability assay.

SNU-423 = assay: cells; format: functional, cell-based; settings: Homo sapiens
Description: SANGER: Inhibition of human SNU-423 cell growth in a cell viability assay.

DBTRG-05MG = assay: cells; format: functional, cell-based; settings: Homo sapiens;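 further: cell viability assay measuring growth inhibition of human DBTRG-05MG cells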
Description: SANGER: Inhibition of human DBTRG-05MG cell growth in a cell viability assay.

MDA-MB-415 = assay: cells; format: functional, cell-based; settings: Homo sapiens
RPMI-6666 = assay: cells; format: functional, cell-based, Homo sapiens; settings: Homo sapiens, RPMI-6666
Description: SANGER: Inhibition of human RPMI-6666 cell growth in a cell viability assay.

CAL-12T = assay: cells; format: functional, cell-based; settings: Homo sapiens;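 further: growth inhibition of human CAL-12T cells, read out with a cell viability assay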
Description: SANGER: Inhibition of human CAL-12T cell growth in a cell viability assay.

LP-1 = assay: cells; format: functional, cell-based, Homo sapiens; settings: Homo sapiens, LP-1;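 further: growth inhibition of human LP-1 cells, with the read-out taken from a cell viability assay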
Description: SANGER: Inhibition of human LP-1 cell growth in a cell viability assay.

NCI-H28 = assay: cells; format: functional, cell-based; settings: Homo sapiens;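 further: growth inhibition of human NCI-H28 cells, read out as cell viability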
Description: SANGER: Inhibition of human NCI-H28 cell growth in a cell viability assay.

A2780 = assay: cells; format: functional, cell-based; settings: Homo sapiens;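 further: growth inhibition of A2780 cells, read out with a cell viability assay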
Description: SANGER: Inhibition of human A2780 cell growth in a cell viability assay.

Detroit 562 = assay: cells; format: functional, cell-based; settings: Homo sapiens;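 further: growth inhibition of human Detroit 562 cells, read out by a cell viability assay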
Description: SANGER: Inhibition of human Detroit562 cell growth in a cell viability assay.

T98G = assay: cells; format: functional, cell-based; settings: Homo sapiens;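 further: growth inhibition of T98G cells, read out by a cell viability assay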
Description: SANGER: Inhibition of human T98G cell growth in a cell viability assay.

COLO-679 = assay: cells; format: functional, cell-based; settings: Homo sapiens
Description: SANGER: Inhibition of human COLO-679 cell growth in a cell viability assay.

MDA-MB-231 = assay: cells; format: functional, cell-based; settings: Homo sapiens
Description: SANGER: Inhibition of human MDA-MB-231 cell growth in a cell viability assay.

MKN-45 = assay: cells; format: functional, cell-based; settings: Homo sapiens;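 further: growth inhibition of human MKN-45 cells, measured with a cell viability assay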
Description: SANGER: Inhibition of human MKN45 cell growth in a cell viability assay.

KYSE-450 = assay: cells; format: functional, cell-based; settings: Homo sapiens;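 further: cell growth inhibition measured by a viability assay in human KYSE-450 cells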
Description: SANGER: Inhibition of human KYSE-450 cell growth in a cell viability assay.

NCI-H322M = assay: cells; format: functional, cell-based, Homo sapiens; settings: Homo sapiens, NCI-H322M;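 further: cell viability assay measuring inhibition of growth of human NCI-H322M cells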
Description: SANGER: Inhibition of human NCI-H322M cell growth in a cell viability assay.

CAMA-1 = assay: cells; format: functional, cell-based; settings: Homo sapiens;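 further: growth inhibition of CAMA-1 cells, read out with a cell viability assay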
Description: SANGER: Inhibition of human CAMA-1 cell growth in a cell viability assay.

HEC-1 = assay: cells; format: functional, cell-based; settings: Homo sapiens;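 further: growth inhibition of the cell line, read out with a cell viability assay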
Description: SANGER: Inhibition of human HEC-1 cell growth in a cell viability assay.

RPMI-2650 = assay: cells; format: functional, cell-based; settings: Homo sapiens
Description: SANGER: Inhibition of human RPMI-2650 cell growth in a cell viability assay.

COLO-678 = assay: cells; format: functional, cell-based; settings: Homo sapiens
Description: SANGER: Inhibition of human COLO-678 cell growth in a cell viability assay.

G-402 = assay: cells; format: functional, cell-based; settings: Homo sapiens
Description: SANGER: Inhibition of human G-402 cell growth in a cell viability assay.

BFTC-909 = assay: cells; format: functional, cell-based; settings: Homo sapiens
Description: SANGER: Inhibition of human BFTC-909 cell growth in a cell viability assay.

NY = assay: cells; format: functional, cell-based; settings: Homo sapiens
Description: SANGER: Inhibition of human NY cell growth in a cell viability assay.

NCI-H727 = assay: cells; format: functional, cell-based; settings: Homo sapiens;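 further: growth inhibition of human NCI-H727 cells, read out with a cell viability assay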
Description: SANGER: Inhibition of human NCI-H727 cell growth in a cell viability assay.

C3A = assay: cells; format: functional, cell-based; settings: Homo sapiens;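 further: growth inhibition of C3A human cells, quantified with a cell viability readout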
Description: SANGER: Inhibition of human C3A cell growth in a cell viability assay.

GAMG = assay: cells; format: functional, cell-based; settings: Homo sapiens;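 further: cell growth inhibition measured by a viability assay in the GAMG human cell line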
Description: SANGER: Inhibition of human GAMG cell growth in a cell viability assay.

NCI-H1417 = assay: cells; format: functional, cell-based, Homo sapiens; settings: Homo sapiens, NCI-H1417;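 further: human NCI-H1417 cells, growth inhibition determined with a cell viability readout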
Description: SANGER: Inhibition of human NCI-H1417 cell growth in a cell viability assay.

8305C = assay: cells; format: functional, cell-based; settings: Homo sapiens
Description: SANGER: Inhibition of human 8305C cell growth in a cell viability assay.

U-118-MG = assay: cells; format: functional, cell-based; settings: Homo sapiens
Description: SANGER: Inhibition of human U-118-MG cell growth in a cell viability assay.

D-392MG = assay: cells; format: functional, cell-based; settings: Homo sapiens
FaDu = assay: cells; format: functional, cell-based; settings: Homo sapiens;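 further: cell viability readout of growth inhibition in FaDu cells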
Description: SANGER: Inhibition of human FADU cell growth in a cell viability assay.

SiHa = assay: cells; format: functional, cell-based; settings: Homo sapiens;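 further: Viability-based readout of growth inhibition in SiHa cells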
Description: SANGER: Inhibition of human SiHa cell growth in a cell viability assay.

HuP-T4 = assay: cells; format: functional, cell-based; settings: Homo sapiens;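 further: cell viability assay measuring how much HuP-T4 cell growth is inhibited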
Description: SANGER: Inhibition of human HuP-T4 cell growth in a cell viability assay.

SK-N-AS = assay: cells; format: functional, cell-based; settings: Homo sapiens;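 further: growth inhibition of human SK-N-AS cells, measured with a cell viability assay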
Description: SANGER: Inhibition of human SK-N-AS cell growth in a cell viability assay.

SW1417 = assay: cells; format: functional, cell-based; settings: Homo sapiens;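 further: growth inhibition of human SW1417 cells, read out with a cell viability assay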
Description: SANGER: Inhibition of human SW1417 cell growth in a cell viability assay.

Panc1005 = assay: cells; format: functional, cell-based; settings: Homo sapiens;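 further: growth inhibition of human PANC-10-05 cells, measured by a cell viability assay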
Description: SANGER: Inhibition of human PANC-10-05 cell growth in a cell viability assay.

ACHN = assay: cells; format: functional, cell-based; settings: Homo sapiens;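 further: cell viability read-out used to gauge how strongly growth of human ACHN cells is suppressed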
Description: SANGER: Inhibition of human ACHN cell growth in a cell viability assay.

ST486 = assay: SANGER: Inhibition of human ST486 cell growth in a cell viability assay.; format: functional, cell-based; settings: Homo sapiens, ST486
CHL-1 = assay: cells; format: functional, cell-based; settings: Homo sapiens;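 further: cell growth inhibition, read out with a cell viability assay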
Description: SANGER: Inhibition of human CHL-1 cell growth in a cell viability assay.

HCC1954 = assay: cells; format: functional, cell-based; settings: Homo sapiens;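 further: growth inhibition of human HCC1954 cells, read out with a cell viability assay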
Description: SANGER: Inhibition of human HCC1954 cell growth in a cell viability assay.

SU-DHL-1 = assay: SANGER: Inhibition of human SU-DHL-1 cell growth in a cell viability assay.; format: functional, cell-based; settings: Homo sapiens, SU-DHL-1
HOS = assay: cells; format: functional, cell-based; settings: Homo sapiens;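 further: growth inhibition of human HOS cells, read out with a cell viability assay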
Description: SANGER: Inhibition of human HOS cell growth in a cell viability assay.

NCI-H1437 = assay: cells; format: functional, cell-based; settings: Homo sapiens;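 further: growth inhibition of human NCI-H1437 cells, read out by a cell viability assay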
Description: SANGER: Inhibition of human NCI-H1437 cell growth in a cell viability assay.

M14 = assay: cells; format: functional, cell-based; settings: Homo sapiens;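 further: growth inhibition of M14 cells, read out with a cell viability assay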
Description: SANGER: Inhibition of human M14 cell growth in a cell viability assay.

MHH-ES-1 = assay: cells; format: functional, cell-based; settings: Homo sapiens
Description: SANGER: Inhibition of human MHH-ES-1 cell growth in a cell viability assay.

SIG-M5 = assay: cells; format: functional, cell-based, Homo sapiens; settings: Homo sapiens, SIG-M5;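 further: cell viability assay read-out, measuring how strongly growth of cultured human SIG-M5 cells is inhibited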
Description: SANGER: Inhibition of human SIG-M5 cell growth in a cell viability assay.

COR-L105 = assay: cells; format: functional, cell-based; settings: Homo sapiens
Description: SANGER: Inhibition of human COR-L105 cell growth in a cell viability assay.

NCI-H2081 = assay: cells; format: functional, cell-based, Homo sapiens; settings: Homo sapiens, NCI-H2081;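 further: growth inhibition of human NCI-H2081 cells, read out with a cell viability assay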
Description: SANGER: Inhibition of human NCI-H2081 cell growth in a cell viability assay.

YT = assay: cells; format: functional, cell-based, Homo sapiens; settings: Homo sapiens, YT
Description: SANGER: Inhibition of human YT cell growth in a cell viability assay.

NCI-H1703 = assay: cells; format: functional, cell-based; settings: Homo sapiens;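 further: growth inhibition of NCI-H1703 cells, read out via a cell viability assay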
Description: SANGER: Inhibition of human NCI-H1703 cell growth in a cell viability assay.

COLO-792 = assay: cells; format: functional, cell-based; settings: Homo sapiens
Description: SANGER: Inhibition of human COLO-792 cell growth in a cell viability assay.

SAOS-2 = assay: cells; format: functional, cell-based; settings: Homo sapiens;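 further: growth inhibition of human Saos-2 cells determined by a cell viability assay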
Description: SANGER: Inhibition of human Saos-2 cell growth in a cell viability assay.

EGI-1 = assay: cells; format: functional, cell-based; settings: Homo sapiens;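 further: cell viability readout used to gauge growth inhibition of EGI-1 cells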
Description: SANGER: Inhibition of human EGI-1 cell growth in a cell viability assay.

NCI-H1963 = assay: cells; format: functional, cell-based, Homo sapiens; settings: Homo sapiens, NCI-H1963;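 further: cell growth inhibition of the human line, determined with a cell viability assay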
Description: SANGER: Inhibition of human NCI-H1963 cell growth in a cell viability assay.

U2OS = assay: cells; format: functional, cell-based, U-2-OS; settings: Homo sapiens;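 further: growth inhibition of human U-2-OS cells, determined with a cell viability assay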
Description: SANGER: Inhibition of human U-2-OS cell growth in a cell viability assay.

SW626 = assay: cells; format: functional, cell-based; settings: Homo sapiens;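 further: growth inhibition of SW626 cells, measured with a cell viability assay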
Description: SANGER: Inhibition of human SW626 cell growth in a cell viability assay.

ChaGo-K-1 = assay: cells; format: functional, cell-based; settings: Homo sapiens;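 further: growth inhibition of ChaGo-K-1 cells, read out with a cell viability assay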
Description: SANGER: Inhibition of human ChaGo-K-1 cell growth in a cell viability assay.

NCI-H2030 = assay: cells; format: functional, cell-based; settings: Homo sapiens;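 further: growth inhibition of human NCI-H2030 cells, read out by a cell viability assay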
Description: SANGER: Inhibition of human NCI-H2030 cell growth in a cell viability assay.

ESS-1 = assay: cells; format: functional, cell-based; settings: Homo sapiens;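 further: growth inhibition of human ESS-1 cells, read out by a cell viability assay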
Description: SANGER: Inhibition of human ESS-1 cell growth in a cell viability assay.

JEG-3 = assay: cells; format: functional, cell-based; settings: Homo sapiens;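 further: growth inhibition of human JEG-3 cells, read out with a cell viability assay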
Description: SANGER: Inhibition of human JEG-3 cell growth in a cell viability assay.

SMILES: OC[C@H](Cc1ccccc1)Nc1nc(Oc2ccc3c(c2)CCC3)nc2c1ncn2Cc1ccc(-c2ccccc2)cc1
- IC50 (NCI-H2171): > 10.2 µM
- IC50 (SNU-423): > 10.2 µM
- IC50 (DBTRG-05MG): > 10.2 µM
- IC50 (MDA-MB-415): > 10.2 µM
- IC50 (RPMI-6666): > 10.2 µM
- IC50 (CAL-12T): 2.48 µM
- IC50 (LP-1): > 10.2 µM
- IC50 (NCI-H28): > 10.2 µM
- IC50 (A2780): > 10.2 µM
- IC50 (Detroit 562): > 10.2 µM
- IC50 (T98G): > 10.2 µM
- IC50 (COLO-679): 2.66 µM
- IC50 (MDA-MB-231): > 10.2 µM
- IC50 (MKN-45): > 10.2 µM
- IC50 (KYSE-450): 8.47 µM
- IC50 (NCI-H322M): > 10.2 µM
- IC50 (CAMA-1): 9.65 µM
- IC50 (HEC-1): > 10.2 µM
- IC50 (RPMI-2650): > 10.2 µM
- IC50 (COLO-678): > 10.2 µM
- IC50 (G-402): > 10.2 µM
- IC50 (BFTC-909): > 10.2 µM
- IC50 (NY): > 10.2 µM
- IC50 (NCI-H727): > 10.2 µM
- IC50 (C3A): > 10.2 µM
- IC50 (GAMG): > 10.2 µM
- IC50 (NCI-H1417): > 10.2 µM
- IC50 (8305C): 2.76 µM
- IC50 (U-118-MG): > 10.2 µM
- IC50 (D-392MG): > 10.2 µM
- IC50 (FaDu): > 10.2 µM
- IC50 (SiHa): > 10.2 µM
- IC50 (HuP-T4): 7.07 µM
- IC50 (SK-N-AS): > 10.2 µM
- IC50 (SW1417): > 10.2 µM
- IC50 (Panc1005): > 10.2 µM
- IC50 (ACHN): > 10.2 µM
- IC50 (ST486): > 10.2 µM
- IC50 (CHL-1): > 10.2 µM
- IC50 (HCC1954): 10 µM
- IC50 (SU-DHL-1): > 10.2 µM
- IC50 (HOS): 3.08 µM
- IC50 (NCI-H1437): 6.89 µM
- IC50 (M14): > 10.2 µM
- IC50 (MHH-ES-1): > 10.2 µM
- IC50 (SIG-M5): 0.654 µM
- IC50 (COR-L105): > 10.2 µM
- IC50 (NCI-H2081): > 10.2 µM
- IC50 (YT): > 10.2 µM
- IC50 (NCI-H1703): > 10.2 µM
- IC50 (COLO-792): 4.79 µM
- IC50 (SAOS-2): > 10.2 µM
- IC50 (EGI-1): > 10.2 µM
- IC50 (NCI-H1963): > 10.2 µM
- IC50 (U2OS): > 10.2 µM
- IC50 (SW626): 8.3 µM
- IC50 (ChaGo-K-1): > 10.2 µM
- IC50 (NCI-H2030): 5.25 µM
- IC50 (ESS-1): > 10.2 µM
- IC50 (JEG-3): > 10.2 µM

SMILES: COC(=O)[C@H](CCSC)NC(=O)c1ccc(NC[C@@H](N)CS)cc1-c1ccccc1
- IC50 (NCI-H2171): > 1.02 µM
- IC50 (SNU-423): > 1.02 µM
- IC50 (DBTRG-05MG): > 1.02 µM
- IC50 (MDA-MB-415): > 1.02 µM
- IC50 (RPMI-6666): > 1.02 µM
- IC50 (CAL-12T): > 1.02 µM
- IC50 (LP-1): > 1.02 µM
- IC50 (NCI-H28): > 1.02 µM
- IC50 (A2780): > 1.02 µM
- IC50 (Detroit 562): > 1.02 µM
- IC50 (T98G): > 1.02 µM
- IC50 (COLO-679): > 1.02 µM
- IC50 (MDA-MB-231): > 1.02 µM
- IC50 (MKN-45): > 1.02 µM
- IC50 (KYSE-450): > 1.02 µM
- IC50 (NCI-H322M): > 1.02 µM
- IC50 (CAMA-1): > 1.02 µM
- IC50 (HEC-1): > 1.02 µM
- IC50 (RPMI-2650): > 1.02 µM
- IC50 (COLO-678): > 1.02 µM
- IC50 (G-402): > 1.02 µM
- IC50 (BFTC-909): > 1.02 µM
- IC50 (NY): > 1.02 µM
- IC50 (NCI-H727): > 1.02 µM
- IC50 (C3A): > 1.02 µM
- IC50 (GAMG): > 1.02 µM
- IC50 (NCI-H1417): > 1.02 µM
- IC50 (8305C): > 1.02 µM
- IC50 (U-118-MG): > 1.02 µM
- IC50 (D-392MG): > 1.02 µM
- IC50 (FaDu): > 1.02 µM
- IC50 (SiHa): > 1.02 µM
- IC50 (HuP-T4): > 1.02 µM
- IC50 (SK-N-AS): > 1.02 µM
- IC50 (SW1417): > 1.02 µM
- IC50 (Panc1005): > 1.02 µM
- IC50 (ACHN): > 1.02 µM
- IC50 (ST486): > 1.02 µM
- IC50 (CHL-1): > 1.02 µM
- IC50 (HCC1954): > 1.02 µM
- IC50 (SU-DHL-1): > 1.02 µM
- IC50 (HOS): > 1.02 µM
- IC50 (NCI-H1437): > 1.02 µM
- IC50 (M14): > 1.02 µM
- IC50 (MHH-ES-1): > 1.02 µM
- IC50 (SIG-M5): > 1.02 µM
- IC50 (COR-L105): > 1.02 µM
- IC50 (NCI-H2081): > 1.02 µM
- IC50 (YT): > 1.02 µM
- IC50 (NCI-H1703): > 1.02 µM
- IC50 (COLO-792): > 1.02 µM
- IC50 (SAOS-2): > 1.02 µM
- IC50 (EGI-1): > 1.02 µM
- IC50 (NCI-H1963): > 1.02 µM
- IC50 (U2OS): > 1.02 µM
- IC50 (SW626): > 1.02 µM
- IC50 (ChaGo-K-1): > 1.02 µM
- IC50 (NCI-H2030): > 1.02 µM
- IC50 (ESS-1): > 1.02 µM
- IC50 (JEG-3): > 1.02 µM
